Experimental data reported in US6673565B2 (priority 1999, dated 2004).

Experiments:
Butyrylcholinesterase = Butyrylcholinesterase (Homo sapiens, UniProt P06276); type: biochemical
Urease = Urease (Canavalia ensiformis, UniProt P07374); type: biochemical
Chain of Urease (P07374 whole entry, looked up): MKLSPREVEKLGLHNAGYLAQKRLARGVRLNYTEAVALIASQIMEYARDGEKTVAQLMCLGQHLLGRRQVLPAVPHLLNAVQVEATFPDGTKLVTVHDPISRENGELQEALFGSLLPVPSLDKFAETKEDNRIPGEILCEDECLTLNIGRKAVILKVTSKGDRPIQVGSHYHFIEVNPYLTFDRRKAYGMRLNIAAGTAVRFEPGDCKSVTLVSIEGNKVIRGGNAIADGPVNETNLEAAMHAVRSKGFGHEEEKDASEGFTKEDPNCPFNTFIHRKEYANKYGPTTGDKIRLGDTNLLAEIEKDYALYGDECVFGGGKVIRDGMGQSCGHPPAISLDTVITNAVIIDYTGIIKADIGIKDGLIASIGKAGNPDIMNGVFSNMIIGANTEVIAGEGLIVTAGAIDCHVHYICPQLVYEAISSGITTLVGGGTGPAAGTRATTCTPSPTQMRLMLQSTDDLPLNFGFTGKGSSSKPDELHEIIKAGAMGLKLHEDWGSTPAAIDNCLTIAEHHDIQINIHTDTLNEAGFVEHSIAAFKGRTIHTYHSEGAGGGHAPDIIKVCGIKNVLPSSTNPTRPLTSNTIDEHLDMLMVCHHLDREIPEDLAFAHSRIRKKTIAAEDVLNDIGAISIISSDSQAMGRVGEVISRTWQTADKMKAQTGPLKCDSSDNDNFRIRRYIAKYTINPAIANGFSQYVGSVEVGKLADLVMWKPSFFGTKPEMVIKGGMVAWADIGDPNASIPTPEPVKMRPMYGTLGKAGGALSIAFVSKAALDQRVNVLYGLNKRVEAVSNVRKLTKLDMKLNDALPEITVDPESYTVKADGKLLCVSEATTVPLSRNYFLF

Chain of Butyrylcholinesterase (P06276 29-602): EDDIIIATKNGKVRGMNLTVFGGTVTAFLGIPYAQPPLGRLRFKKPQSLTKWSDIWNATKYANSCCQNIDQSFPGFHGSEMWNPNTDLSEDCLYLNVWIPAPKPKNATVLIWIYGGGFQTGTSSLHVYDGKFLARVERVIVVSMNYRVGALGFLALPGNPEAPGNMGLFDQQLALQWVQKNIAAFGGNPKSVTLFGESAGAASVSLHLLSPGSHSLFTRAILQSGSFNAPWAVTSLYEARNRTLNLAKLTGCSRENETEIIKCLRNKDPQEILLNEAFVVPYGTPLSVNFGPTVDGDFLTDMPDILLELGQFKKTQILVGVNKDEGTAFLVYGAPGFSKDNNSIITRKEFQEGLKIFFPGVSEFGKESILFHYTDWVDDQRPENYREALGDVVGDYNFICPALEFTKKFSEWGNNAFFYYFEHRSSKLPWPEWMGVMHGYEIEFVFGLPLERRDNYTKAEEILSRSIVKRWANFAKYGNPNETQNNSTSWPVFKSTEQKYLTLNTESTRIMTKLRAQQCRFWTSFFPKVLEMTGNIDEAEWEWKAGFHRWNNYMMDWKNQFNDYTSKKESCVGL

SMILES	Inhibition of BChE polymer used to wipe paraoxon-containing beakers (Butyrylcholinesterase)	Color change of urease/m-cresol purple polymer disks (Urease)
CCOP(=O)(OCC)Oc1ccc([N+](=O)[O-])cc1 [paraoxon, Paraoxon]	complete inhibition	
NC(N)=O [urea]		transition from yellow to blue
